Laboratory results from patent publication US9820992B2, “Method of treating non-small-cell lung cancer using pharmaceutical formulation containing thienotriazolodiazepine compounds” (ONCOETHIX GmbH, priority 2013, dated 2017).
“Also recorded” adds a separate entry of the source.

Assays:
H3122 tumor = H3122 tumor growth in nude mice; format: in vivo, male athymic NMRI nude mice; conditions: gavage, continuous
Protocol: 5.10^6 H3122 cells were injected in the flank of male athymic NMRI nude mice, and mice were randomized to 3 groups (8 mice/group) when tumor volume reach 100 mm^3; vehicle (PBS, once daily, oral continuous), Compound (1-1) (50 mg/kg/bidaily, gavage, continuous), or crizotinib (25 mg/kg/daily, gavage, continuous).

A549 cells [1] = experiment: MTT cell viability/proliferation assay, 72 h; format: cell-based
Protocol: (§1) Five established NSCLC cell lines (i.e. H2228, H3122, A549, HOP62 and HOP92) were exposed to increasing doses of compound (1-1) (OncoEthix SA, Switzerland). Effect on cell viability was determined by the MTT assay after 72 h exposure. The growth inhibition (GI) 50% values were determined by GraphPad Prism 5.0 software. And protein levels were analyzed by Western Blot using commercial antibodies. RNA was extracted with the Qiagen RNAEasy kit and reverse-transcribed using the Superscript First-Strand Synthesis System for RT-PCR kit following manufacturer's instructions. RT-PCR was performed using Fast SYBR Green Master Mix on a StepOnePlus Real-Time PCR System.
(§2) Five established NSCLC cell lines, HOP62, HOP92, A549, H2228, and H3122 harboring different oncogenic mutations for KRAS, LKB1, TP53 and ALK (FIG. 19) were exposed to increasing doses of compound (1-1) (OncoEthix SA, Switzerland) for 72 h and cell proliferation was evaluated by MTT assays. Results represent the mean±95% CI of at least 3 independent experiments performed in triplicate. Protein levels were analyzed by Western blot using commercial antibodies. For cell cycle analysis cells were stained with PI and analyzed using a FACScan flow cytometer after 24 h of treatment. RT-PCR was performed using Fast SYBR Green Master Mix on a StepOnePlus Real-Time PCR System. Results represent the mean±SD of at least 2 independent experiments, where *p<0.05 versus control cells (0.1% DMSO), employing Anova followed by Dunnett's Multiple Comparison Test. Concomitant compound (1-1) combination studies were performed in cell lines exposed for 48 h to increasing doses of compound (1-1) alone or in combination with everolimus or crizotinib, and assessed using the Chou & Talalay method. Combination Index (CI) was determined by median effect plot analysis using CalcuSyn software. CI<1 synergy, CI=1 additivity and CI>1 antagonist effects. Results represent the median and range of 3 independent experiments performed in triplicate.

H2228 cells [2] = experiment: MTT cell viability/proliferation assay, 72 h; format: cell-based; conditions: Homo sapiens, NCI-H2228, H2228 cells (EML4-ALK-positive), 72-h exposure
Protocol: as §1, §2

H3122 cells = experiment: MTT cell viability/proliferation assay, 72 h; format: cell-based; conditions: Homo sapiens, NCI-H3122, H3122 cells (EML4-ALK-positive), 72-h exposure
Protocol: as §1, §2

[3] = test system: NSCLC cell lines HOP62, HOP92, A549, H2228, H3122; experiment: MTT proliferation assay in NSCLC cell line panel; format: cell-based; conditions: five NSCLC cell lines
Protocol: as §2

NSCLC cells = experiment: Cell cycle analysis (PI staining, flow cytometer); format: cell-based; conditions: 24 h exposure; dihydrate
Protocol: as §2

STAT3 = experiment: Cell signaling pathways assessment (Western blot); format: cell-based; conditions: down-regulation after 24 h and up to 72 h exposure
Protocol: as §1

C-MYC = C-MYC protein and mRNA levels in NSCLC cell lines (Western blot, RT-PCR); format: cell-based; conditions: NSCLC cell lines (Example 7)
Protocol: as §1

[4] = test system: N-MYC mRNA in H3122 cells; experiment: N-MYC mRNA levels in H3122 cells (RT-PCR); format: cell-based
Protocol: as §1
Five established NSCLC cell lines, HOP62, HOP92, A549, H2228, and H3122 harboring different oncogenic mutations for KRAS, LKB1, TP53 and ALK (FIG. 19) were exposed to increasing doses of compound (1-1) (OncoEthix SA, Switzerland) for 72 h and cell proliferation was evaluated by MTT assays. […] Protein levels were analyzed by Western blot using commercial antibodies. For cell cycle analysis cells were stained with PI and analyzed using a FACScan flow cytometer after 24 h of treatment. […] Concomitant compound (1-1) combination studies were performed in cell lines exposed for 48 h to increasing doses of compound (1-1) alone or in combination with everolimus or crizotinib, and assessed using the Chou & Talalay method. […]

C-MYC in HOP92 cells = experiment: C-MYC mRNA and protein levels in HOP92 cells; format: cell-based; conditions: 500 nM, after 4 hours, maintained after 24 hours
Protocol: as §2

[5] = test system: N-MYC mRNA in HOP62 cells; experiment: N-MYC mRNA levels in HOP62 cells (RT-PCR); format: cell-based; conditions: 500 nM, after 4 hours, maintained after 24 hours
Protocol: as §2

H2228 cells [6] = experiment: Concomitant combination with crizotinib (Chou & Talalay); format: cell-based; conditions: combined with crizotinib, 48 h concomitant exposure, CI<1 synergy, CI=1 additivity, CI>1 antagonist, called additive
Protocol: as §2

A549 cells [7] = experiment: Concomitant combination with everolimus (Chou & Talalay); format: cell-based; conditions: 48 h concomitant
Protocol: as §2

H2228 cells [8] = experiment: as above; format: cell-based; conditions: 48 h concomitant
Protocol: as §2

HOP62 cells = experiment: as above; format: cell-based; conditions: 48 h concomitant
Protocol: as §2

HOP92 cells = experiment: as above; format: cell-based; conditions: 48 h concomitant
Protocol: as §2

| GI50 (A549 cells [1]; Homo sapiens, A549, EML4-ALK-negative (A49) cell line, 72 h exposure, MTT) | GI50 (H2228 cells [2]) | GI50 (H3122 cells) | GI50 ([3]; 72 h-exposure, read-out: GI50 values across the cell line panel) | SMILES | tumor growth in H3122 tumor bearing-mice (H3122 tumor; 25 mg/kg/daily) | effects in A549 cells (A549 cells [1]; A549 cells with concurrent KRAS and LKB1 mutations) | cytostatic effects in NSCLC cell lines ([3]; 72 h) | percentage of cells in S phase (NSCLC cells) | STAT3 regulation (STAT3) | C-MYC protein and mRNA levels (C-MYC) | N-MYC mRNA levels ([4]; EML4-ALK-positive H3122 cells (Example 7)) | N-MYC mRNA levels ([4]; H3122 cells, 500 nM, after 4 hours, maintained after 24 hours) | C-MYC mRNA and protein levels (C-MYC in HOP92 cells) | N-MYC mRNA levels [5] | Combination Index (CI) (H2228 cells [6]) | combination effect with everolimus (A549 cells [7]) | combination effect with everolimus (H2228 cells [8]) | combination effect with everolimus (HOP62 cells) | combination effect with everolimus (HOP92 cells) | tumor growth in H3122 tumor bearing-mice (H3122 tumor; 50 mg/kg/bidaily, vs vehicle, dihydrate) |
| --- | --- | --- | --- | --- | --- | --- | --- | --- | --- | --- | --- | --- | --- | --- | --- | --- | --- | --- | --- | --- |
| – | – | – | – | C[C@@H](Oc1cc(-c2cnn(C3CCNCC3)c2)cnc1N)c1c(Cl)ccc(F)c1Cl [crizotinib, reference compound] | inhibited tumor growth to a similar extent | – | – | – | – | – | – | – | – | – | – | – | – | – | – | – |
| 0.432 µM | 0.629 µM | 0.627 µM | 0.1 to 0.7 µM | Cc1sc2c(c1C)C(c1ccc(Cl)cc1)=N[C@@H](CC(=O)Nc1ccc(O)cc1)c1nnc(C)n1-2 [Compound (1-1), 2-[(6S)-4-(4-chlorophenyl)-2,3,9-trimethyl-6H-thienol[3,2-f]-[1,2,4]triazolo[4,3-a][1,4]diazepin-6-yl]-N-(4-hydroxyphenyl)acetamide dihydrate] | – | abrogate compound (1-1) effects | cytostatic effects in 4 out of 5 NSCLC cell lines | reduction in the percentage of cells in S phase; also recorded: reduction of the S phase cell fraction | transient upregulation of STATS with a subsequent down-regulation | not altered | down-regulation | rapid downregulation | rapid downregulation | rapid downregulation | 0.9 | additive/synergistic effects | additive/synergistic effects | additive/synergistic effects | additive/synergistic effects | inhibited tumor growth to a similar extent as crizotinib; also recorded: slowed tumor progression |
